This note sets out measurements from patent publication US12226424B2, “Target protein degradation compounds, their anti-tumor use, their intermediates and use of intermediates” (ShanghaiTech University, priority 2018, dated 2025).

Experiment [1] deals with MM1S cells. Briefly: Half inhibitory concentration (IC50) on BET-expressing tumor cells, CCK-8, MM1S. It counts as cell-based. Conditions: Homo sapiens, MM1.S, 48/72 h, read-out: IC50 (nM)/MM1S cell line. The procedure, abridged:
(§1)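 Cells treated for 48/72 h with ten 5-fold dilutions from 10 μM top, DMSO as negative control. Viability read by CCK-8 (2 h, OD450) and IC50 derived from the concentration series; suspension lines seeded at 15000/10000 cells/well, MDA-MB lines at 3000/5000 cells/well.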

Experiment [2] deals with MV-4-11 cells. As to the kind of experiment: Half inhibitory concentration (IC50) on BET-expressing tumor cells, CCK-8, MV-4-11. Conditions: Homo sapiens, MV4-11, read-out: IC50 (nM)/MV-4-11 cell line, MV-4-11 cells, 48/72 h, CCK-8.
The subject of experiment [3] is SR cells. Briefly: Half inhibitory concentration (IC50) on BET-expressing tumor cells, CCK-8, SR. It counts as cell-based. Conditions: Homo sapiens, 48/72 h, read-out: IC50 (nM)/SR cell line. On the procedure:
BET-expressing cells MV-4-11 cells (human B granulocytic leukemia cells), MDA-MB-231 cells (human breast cancer cells), MDA-MB-468 cells (human breast cancer cells), MDA-MB-453 Cells (human breast cancer cells), MM1S cells (myeloma (immunoglobulin A lambda), B lymphoblasts) and SR cells (human large cell immunoblast lymphoma) were purchased from the American Type Culture Collection (ATCC).
The cells used in this present disclosure were cultured in a 37° C. incubator containing 5% CO2. The complete cell culture medium was RPMI 1640/IMDM/DMEM medium with 10% fetal bovine serum, and the final concentrations of penicillin and streptomycin were 100 U/mL, respectively. All cells were tested negative for mycoplasma with mycoplasma detection kit before the experiment.
Determination of the Half Inhibitory Concentration (IC50) of PROTAD Compounds on Tumor Cells
MV-411 cells, MM1S cells and SR cells were seeded in 100 μL IMDM/RPMI1640/DMEM complete medium at a density of 15000/10000 cells/well; MDA-MB-231 cells, MDA-MB-468 cells, and MDA-MB453 cells were seeded in 100 μL IMDM/RPMI1640/DMEM complete medium at a density of 3000/5000 cells/well, respectively. 100 μL of the inoculated cells were treated with 0.5 μL diluted PROTAD compounds of the present disclosure to be tested at 10 successively decreasing concentrations (starting at the highest concentration of 10 μM; 5-fold serial dilutions). After the cells were treated with the tested drugs 48/72 h, the cell viability was determined according to the CCK-8 reagent manual. The negative control was DMSO, and the positive control was a commercial inhibitor. After CCK-8 treatment for 2 h, the value of O.D.450 was measured using a microplate reader.

Experiment [4] relates to MDA-MB-453 cells. As to the kind of experiment: Half inhibitory concentration (IC50) on BET-expressing tumor cells, CCK-8, MDA-MB-453. The following applies: 48/72 h, read-out: IC50 (nM)/MDA-MB-453 cell line. The class given is cell-based, human. The procedure, abridged: as §1
The subject of experiment [5] is MDA-MB-231 cells. Briefly: Half inhibitory concentration (IC50) on BET-expressing tumor cells, CCK-8, MDA-MB-231. The class given is cell-based. Conditions: Homo sapiens, 48/72 h, read-out: IC50 (nM)/MDA-MB-231 cell line. The procedure, abridged: as §1
The test system of experiment [6] is MDA-MB-468 cells. As to the kind of experiment: Half inhibitory concentration (IC50) on BET-expressing tumor cells, CCK-8, MDA-MB-468. It counts as cell-based. Conditions: Homo sapiens, 48/72 h, read-out: IC50 (nM)/MDA-MB-468 cell line. The procedure, abridged:
as §1

Experiment [7] deals with T1, BRD4 (Homo sapiens, UniProt O60885). Briefly: Western-blot detection of BRD4 protein degradation (FIGS. 16a-c). It counts as cell-based.
In experiment [8] the target is T1, BRD4. As to the kind of experiment: Western-blot degradation of BRD4 in MV-4-11 cells. It counts as cell-based. The following applies: 24 hours. The source says:
(§2) Western-Blot Determination of the Half-Degradation Concentration (DC50) of the PROTAD Compounds on the Target Proteins
(§3) The supernatant was aspirated as total cell protein extracted.

For experiment [9], the target named is T2, BRD2 (Homo sapiens, UniProt P25440). Briefly: Western-blot detection of BRD2 protein degradation (FIGS. 16a-c). The class given is cell-based.
Experiment [10] addresses T2, BRD2. As to the kind of experiment: Western-blot half-degradation concentration (DC50) / degradation of BRD2 in MV-4-11 cells. The class given is cell-based. The following applies: 24 hours.
Description: as §2, §3

Setting [11] is: Homo sapiens, MDA-MB-453, MDA-MB-453 cells.

Like-named read-outs stand apart in the source and are kept apart here.

T2 sequence (P25440 whole entry): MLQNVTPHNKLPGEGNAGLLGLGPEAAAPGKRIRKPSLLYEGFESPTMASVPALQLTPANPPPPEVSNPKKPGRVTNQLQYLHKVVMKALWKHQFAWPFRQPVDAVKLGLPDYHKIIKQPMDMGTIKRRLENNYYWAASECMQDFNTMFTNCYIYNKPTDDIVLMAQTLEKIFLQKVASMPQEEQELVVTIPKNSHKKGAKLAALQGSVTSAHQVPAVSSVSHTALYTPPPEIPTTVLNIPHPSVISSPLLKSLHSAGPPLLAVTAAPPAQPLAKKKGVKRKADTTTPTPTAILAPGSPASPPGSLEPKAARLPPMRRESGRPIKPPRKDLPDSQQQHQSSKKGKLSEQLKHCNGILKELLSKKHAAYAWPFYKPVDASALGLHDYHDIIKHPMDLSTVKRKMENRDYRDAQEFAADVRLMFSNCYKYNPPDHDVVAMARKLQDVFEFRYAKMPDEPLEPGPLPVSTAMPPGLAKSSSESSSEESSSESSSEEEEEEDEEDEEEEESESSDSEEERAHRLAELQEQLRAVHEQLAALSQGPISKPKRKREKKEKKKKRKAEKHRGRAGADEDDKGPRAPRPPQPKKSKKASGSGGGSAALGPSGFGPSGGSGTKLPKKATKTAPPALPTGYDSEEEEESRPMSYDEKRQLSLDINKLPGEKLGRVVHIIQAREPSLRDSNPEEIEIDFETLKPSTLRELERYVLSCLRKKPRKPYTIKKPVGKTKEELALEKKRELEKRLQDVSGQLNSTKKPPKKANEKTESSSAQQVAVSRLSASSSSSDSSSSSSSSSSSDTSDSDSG

With `Cc1sc2c(c1C)C(c1ccc(Cl)cc1)=N[C@@H](CC(=O)NCCCCSc1cccc3c1CN(C1CCC(=O)NC1=O)C3=O)c1nnc(C)n1-2` (stereo partly drawn) [SIAIS171141, 2-((S)-4-(4-chlorophenyl)-2,3,9-trimethyl-6H-thieno[3,2-f][1,2,4]triazolo[4,3-a][1,4]diazepin-6-yl)-N-(4-((2-(2,6-dioxopiperidin-3-yl)-1-oxoisoindolin-4-yl)thio)butyl)acetamide], the IC50 in experiment [1] is 0.24 nM; in experiment [2], 0.25 ± 0.2 nM; in experiment [3] it was 3.91 nM; in experiment [4] (setting [11]), 112 nM; in experiment [4] (MDA-MB-453 cells), 98 nM; in experiment [5], 19.9 ± 9.2 nM. Further, in experiment [6], the IC50 is 10 ± 2 nM.
For the compound `Cc1sc2c(c1C)C(c1ccc(Cl)cc1)=N[C@@H](CC(=O)NCCCCCSc1cccc3c1CN(C1CCC(=O)NC1=O)C3=O)c1nnc(C)n1-2` (stereo partly drawn) [SIAIS171142, 2-((S)-4-(4-chlorophenyl)-2,3,9-trimethyl-6H-thieno[3,2-f][1,2,4]triazolo[4,3-a][1,4]diazepin-6-yl)-N-(5-((2-(2,6-dioxopiperidin-3-yl)-1-oxoisoindolin-4-yl)thio)pentyl)acetamide], the IC50 was determined as 0.31 nM in experiment [1]; 0.08 ± 0.03 nM in [2]; 2.42 nM in [3]; 37.4 nM in [4] (setting [11]); 37.1 nM in [4] (MDA-MB-453 cells); 17.7 ± 7.6 nM in experiment [5]. In [6], the IC50 was determined as 6.1 ± 0.4 nM.
As for `Cc1sc2c(c1C)C(c1ccc(Cl)cc1)=N[C@@H](CC(=O)NCCCCCCSc1cccc3c1CN(C1CCC(=O)NC1=O)C3=O)c1nnc(C)n1-2` (stereo partly drawn) [SIAIS171143, 2-((S)-4-(4-chlorophenyl)-2,3,9-trimethyl-6H-thieno[3,2-f][1,2,4]triazolo[4,3-a][1,4]diazepin-6-yl)-N-(6-((2-(2,6-dioxopiperidin-3-yl)-1-oxoisoindolin-4-yl)thio)hexyl)acetamide], the IC50 came to 0.32 nM in [1]; 0.3 nM in experiment [2]; 1.48 nM in [3]; 313 ± 309 nM in experiment [5]; 376 ± 55 nM in experiment [6].
Consider `Cc1sc2c(c1C)C(c1ccc(Cl)cc1)=N[C@@H](CC(=O)NCCCCCNc1cccc3c1CN(C1CCC(=O)NC1=O)C3=O)c1nnc(C)n1-2` (stereo partly drawn) [SIAIS213110, 2-((S)-4-(4-chlorophenyl)-2,3,9-trimethyl-6H-thieno[3,2-f][1,2,4]triazolo[4,3-a][1,4]diazepin-6-yl)-N-(5-((2-(2,6-dioxopiperidin-3-yl)-1-oxoisoindolin-4-yl)amino)pentyl)acetamide], for which the “ability to degrade BRD4 protein (Western-blot, in words)” value in experiment [7] is listed as “significantly weaker ability to degrade”. Besides, in experiment [8], the “degradation of BRD4 protein (Western-blot)” value is “significantly weaker ability to degrade BRD2 and BRD4 proteins”. Besides, the “ability to degrade BRD2 protein (Western-blot, in words)” value in [9] is listed as “significantly weaker ability to degrade”. The “degradation of BRD2 protein (Western-blot)” value in experiment [10] was “significantly weaker ability to degrade BRD2 and BRD4 proteins”.
Turning to `Cc1sc2c(c1C)C(c1ccc(Cl)cc1)=N[C@@H](CC(=O)NCCCCCOc1cccc3c1CN(C1CCC(=O)NC1=O)C3=O)c1nnc(C)n1-2` (stereo partly drawn) [SIAIS271066, 2-((S)-4-(4-chlorophenyl)-2,3,9-trimethyl-6H-thieno[3,2-f][1,2,4]triazolo[4,3-a][1,4]diazepin-6-yl)-N-(5-((2-(2,6-dioxopiperidin-3-yl)-1-oxoisoindolin-4-yl)oxy)pentyl)acetamide], in experiment [7], the “ability to degrade BRD4 protein (Western-blot, in words)” value is “significantly weaker ability to degrade”. For the same compound, the “degradation of BRD4 protein (Western-blot)” value in experiment [8] was “significantly weaker ability to degrade BRD2 and BRD4 proteins”. Also, the “ability to degrade BRD2 protein (Western-blot, in words)” value in experiment [9] is listed as “significantly weaker ability to degrade”. The “degradation of BRD2 protein (Western-blot)” value in experiment [10] is “significantly weaker ability to degrade BRD2 and BRD4 proteins”.
